Entries after “also recorded” stand apart in the source; their conditions may differ. Read-outs that look alike come from different tables or passages of the source.

Series [1] addresses vaccinia virus DNA synthesis (viral DNA polymerase and its associated factors) (Vaccinia virus, UniProt P06856). It counts as biochemical.
Series [2] deals with vaccinia virus WR. The series can be described thus: microbe, parasite or virus in culture. The format is cell-based. Conditions: for EC50: Orthopoxvirus vaccinia.
In series [3] the test system is vaccinia virus WR. Description: microbe, parasite or virus in culture. The format is cell-based. The conditions noted are these: Orthopoxvirus vaccinia.
In series [4] the test system is vaccinia virus WR. The format is cell-based.
The nature of series [5]: Solubility in cell growth medium by light scattering. Conditions: concentrations of the activity assays. On the procedure: These 16 compounds were tested for cell protection and cytotoxicity over longer times (48 h and 72 h). […] The solubility of the 16 compounds was verified in cell growth medium over the range of concentrations used in the activity assays.
The nature of the next series: WST-1 cytotoxicity assay. The conditions noted are these: African green monkey, BS-C-1 cells. (Tetrazolium dyes change colour on reduction, which living cells bring about.)
In another series the test system is BS-C-1 cells. Description: WST-1 cytotoxicity assay. Conditions: for tox 20 h TC50 / tox 72 h TC50 / tox 120 h TC50: Table 6; for CC50: Table 4.
The target of series [6] is vaccinia E9 polymerase (Vaccinia virus (strain Western Reserve) (VACV) (Vaccinia virus (strain WR)), UniProt P06856). The format is biochemical.
Series [7] concerns the target triad (A20, D4, E9) (Vaccinia virus (strain Western Reserve) (VACV) (Vaccinia virus (strain WR)), UniProt P06856). It counts as biochemical.
For series [8], the target named is vaccinia triad (A20, D4, E9) (Vaccinia virus (strain Western Reserve) (VACV) (Vaccinia virus (strain WR)), UniProt P06856). It counts as biochemical.
A further series has as its system vaccinia virus. Description: microbe, parasite or virus in culture. The conditions noted are these: Orthopoxvirus vaccinia, BSC-1, 1 h, read-out: Inhibition of plaques. The format is cell-based.
The subject of another series is BSC-1 cells. Conditions: 100 μM.
The mark [9] stands for this setting: read-out: DNA Synthesis Inhibition IC50.
Where [10] appears, read: 20 h, read-out: Cell Protection 20 h EC50.
Where [11] appears, read: BSC-1, 20 h, read-out: cell prot EC50.
The mark [12] stands for this setting: 20 h, read-out: Plaque Reduction 20 h EC50.
Setting [13] is: BSC-1, 20 h, read-out: plaque red EC50.
Where [14] appears, read: read-out: Cytotoxicity 20 h CC50, 20 h.
Where [15] appears, read: read-out: Cytotoxicity 72 h CC50, 72 h.
The mark [16] stands for this setting: read-out: Cytotoxicity 120 h CC50, 120 h.

As a reminder, the IC50 is the concentration that gives 50% inhibition. Broadly, the EC50 is the midpoint of the concentration-response curve. A word on the CC50: it is the concentration at which the toxic effect on the cells reaches its halfway point. For the compound `N=C1S/C(=C/c2ccco2)C(=O)N1c1nccs1` [Compound 12], the IC50 in [1] (setting [9]) and in series [1] (read-out: DNA synth IC50) was 32 µM throughout. The “Selectivity Index SI” value with vaccinia virus WR [2] is greater than 1.2. The selectivity index in the series with vaccinia virus WR [2] is given as greater than 1.2. In addition, the half-maximal effective concentration (EC50) in the series with vaccinia virus WR [2] (setting [10]) is 80 µM; in the series on vaccinia virus WR [2] (setting [11]), 80 µM; in the series with vaccinia virus WR [3] (setting [12]), 75 µM; in the series with vaccinia virus WR [3] (setting [13]) it was 75 µM. Further, the “Effect of dsDNA” value with vaccinia virus WR [4] was “No”. Moreover, the “trapped by dsDNA” value in the series on vaccinia virus WR [4] is “no”. In [5], the “Solubility in cell growth medium” value is “just slightly insoluble at the EC50”. Further, the CC50 at 72 h in “WST-1 cytotoxicity assay” was greater than 50 µM. Besides, the “tox 20 h TC50” value with BS-C-1 cells (20 h) was greater than 100 µM. Further, the “tox 72 h TC50” value with BS-C-1 cells (72 h) was greater than 100 µM. For the same compound, the “tox 120 h TC50” value with BS-C-1 cells (120 h) was 50 µM. For the same compound, the CC50 in the series on BS-C-1 cells (setting [14]) is greater than 100 µM.

With `O=C(O)Cn1c2ccc(Cl)cc2c2nc3ccccc3nc21` [Compound 13], the EC50 came out at 100 µM in the series with vaccinia virus WR [2] (setting [10]), 100 µM with vaccinia virus WR [2] (setting [11]), 50 µM in the series with vaccinia virus WR [3] (setting [12]) and 50 µM with vaccinia virus WR [3] (setting [13]). Besides, the “Effect of dsDNA” value in the series on vaccinia virus WR [4] is “No”. In addition, in the series with vaccinia virus WR [4], the “trapped by dsDNA” value is listed as “no”. In [5], the “Solubility in cell growth medium” value is “just slightly insoluble at the EC50”. In addition, in the series with BS-C-1 cells (20 h), the “tox 20 h TC50” value is greater than 100 µM. Also, in the series on BS-C-1 cells (72 h), the “tox 72 h TC50” value worked out at 13 µM. In the series on BS-C-1 cells (120 h), the “tox 120 h TC50” value was 30 µM. Moreover, the CC50 with BS-C-1 cells (setting [14]) is greater than 100 µM; in the series with BS-C-1 cells (setting [15]) it was 13 µM; in the series with BS-C-1 cells (setting [16]) it was 30 µM.

In the case of `N=C1/C(=C/c2coc3ccccc3c2=O)C(=O)N=C2SC=NN12` [Compound 14], the IC50 in series [1] (setting [9]) and in [1] (read-out: DNA synth IC50) was 75 µM throughout. Moreover, the “Selectivity Index SI” value in the series on vaccinia virus WR [2] is greater than 1. The same compound returned a selectivity index in the series with vaccinia virus WR [2] greater than 1. Further, the EC50 is 188 µM in the series on vaccinia virus WR [2] (setting [10]), 188 µM with vaccinia virus WR [2] (setting [11]), 150 µM with vaccinia virus WR [3] (setting [12]) and 150 µM in the series on vaccinia virus WR [3] (setting [13]). Moreover, the “Effect of dsDNA” value in the series on vaccinia virus WR [4] was “No”. For the same compound, the “trapped by dsDNA” value in the series with vaccinia virus WR [4] is recorded as “no”. Besides, the “tox 20 h TC50” value in the series on BS-C-1 cells (20 h) was greater than 200 µM. In addition, in the series with BS-C-1 cells (72 h), the “tox 72 h TC50” value is greater than 200 µM. Besides, the “tox 120 h TC50” value with BS-C-1 cells (120 h) is 50 µM. Moreover, the CC50 in the series with BS-C-1 cells (setting [14]) was greater than 200 µM; in the series with BS-C-1 cells (setting [15]), greater than 200 µM; in the series with BS-C-1 cells (setting [16]), 50 µM.

Take `CC(=O)n1c2ccccc2c2nc(C)sc21` [Compound 15]: the IC50 in series [1] (setting [9]) and in [1] (read-out: DNA synth IC50) was 111 µM throughout. Besides, the “Selectivity Index SI” value in the series on vaccinia virus WR [2] is on record as greater than 1. The selectivity index with vaccinia virus WR [2] is reported as greater than 1. The concentration for a half-maximal effect (EC50) amounted to 236 µM in the series on vaccinia virus WR [2] (setting [10]), 236 µM in the series with vaccinia virus WR [2] (setting [11]), 100 µM with vaccinia virus WR [3] (setting [12]) and 100 µM in the series on vaccinia virus WR [3] (setting [13]). Further, the “Effect of dsDNA” value in the series with vaccinia virus WR [4] was “No”. Further, the “trapped by dsDNA” value in the series with vaccinia virus WR [4] is recorded as “no”. For the same compound, the “tox 20 h TC50” value in the series with BS-C-1 cells (20 h) was greater than 200 µM. Also, the “tox 72 h TC50” value with BS-C-1 cells (72 h) is greater than 200 µM. Moreover, the “tox 120 h TC50” value in the series on BS-C-1 cells (120 h) is 75 µM. In addition, the cytotoxic concentration (CC50) was greater than 200 µM in the series with BS-C-1 cells (setting [14]), greater than 200 µM in the series with BS-C-1 cells (setting [15]) and 75 µM in the series on BS-C-1 cells (setting [16]).

Regarding `O=C1/C(=C/C2CCCO2)CC/C1=C\C1CCCO1` (stereo not shown) [Compound 16], the concentration for half-maximal inhibition (IC50) in series [1] (setting [9]) and in [1] (read-out: DNA synth IC50) was 239 µM throughout. In addition, the “Selectivity Index SI” value in the series on vaccinia virus WR [2] is on record as greater than 1. The same compound gave a selectivity index in the series with vaccinia virus WR [2] greater than 1. Also, the half-maximal effective concentration (EC50) in the series with vaccinia virus WR [2] (setting [10]) came to 100 µM; in the series on vaccinia virus WR [2] (setting [11]) it was 100 µM; in the series on vaccinia virus WR [3] (setting [12]) it was 50 µM; in the series on vaccinia virus WR [3] (setting [13]) it was 50 µM. Also, the “Effect of dsDNA” value in the series with vaccinia virus WR [4] is reported as “No”. Moreover, in the series with vaccinia virus WR [4], the “trapped by dsDNA” value is recorded as “no”. In addition, in series [5], the “Solubility in cell growth medium” value was “just slightly insoluble at the EC50”. Also, the “tox 20 h TC50” value in the series on BS-C-1 cells (20 h) is greater than 100 µM. The “tox 72 h TC50” value with BS-C-1 cells (72 h) was greater than 100 µM. Moreover, the “tox 120 h TC50” value with BS-C-1 cells (120 h) stood at 50 µM. Further, the CC50 in the series with BS-C-1 cells (setting [14]) was greater than 100 µM.

One may read the inhibition as the change of the read-out against control, counted positive when it falls. Take `O=C1CSC(=S)N1/N=C/c1ccc(Cl)c([N+](=O)[O-])c1` [NSC 124808]: in series [6], the “Effect on E9 polymerase activity on the uniform template” value is “not on the uniform template; also recorded: minimal effects”. In [7], the “Effect on DNA synthesis by the triad on the distal template” value is on record as “prevented DNA synthesis by the triad on the distal template; also recorded: blocked incorporation on the distal template” and the “Targeted Activity (% Inhibition): Processivity” value is “Processivity (62%)”. In addition, the “Effect on synthesis of M13 DNA” value in [8] is “blocked by increasing concentrations”. Also, in the series on vaccinia virus, the inhibition at 100 µM was determined as 36%. Further, in the series with BSC-1 cells, the “Cell Cytotoxicity” value was found to be 21%.

The record behind these values is patent US9211296B2, “Therapeutic compounds for blocking DNA synthesis of POX viruses” (priority 2007, dated 2015).
